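Method: 48-hour compound exposure of cells in 96-well plates, five concentrations, linear interpolation of endpoints. GI50 is the concentration that inhibits growth by half.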 Active and inactive are the calls of the source. Cut-off read from the data, not from the text of the source: active = GI50 up to about 1.1 µM and inactive = higher.
Legend:
Test in all cases: DTP human tumour cell line panel, 48 h
[1] = system: 786-0
[2] = system: A498
[3] = system: A549
[4] = system: ACHN
[5] = system: CAKI-1
[6] = system: CCRF-CEM
[7] = system: COLO 205
[8] = system: DU-145
[9] = system: EKVX
[10] = system: HCC 2998
[11] = system: HCT-116
[12] = system: HCT-15
[13] = system: HL-60
[14] = system: HOP-62
[15] = system: HOP-92
[16] = system: HT-29
[17] = system: Hs-578T
[18] = system: IGROV-1
[19] = system: K562
[20] = system: KM12
[21] = system: LOX IMVI
[22] = system: M14
[23] = system: MCF7
[24] = system: MDA-MB-231
[25] = system: MDA-MB-435
[26] = system: MDA-N
[27] = system: MOLT-4
[28] = system: Malme-3M
[29] = system: NCI-H226
[30] = system: NCI-H23
[31] = system: NCI-H460
[32] = system: NCI-H522
[33] = system: NCI/ADR-RES
[34] = system: OVCAR-3
[35] = system: OVCAR-4
[36] = system: OVCAR-5
[37] = system: OVCAR-8
[38] = system: PC-3
[39] = system: RXF 393
[40] = system: SF-268
[41] = system: SF-295
[42] = system: SF-539
[43] = system: SK-MEL-28
[44] = system: SK-MEL-2
[45] = system: SK-MEL-5
[46] = system: SK-OV-3
[47] = system: SN12C
[48] = system: SNB-19
[49] = system: SR
[50] = system: SW-620
[51] = system: T47D
[52] = system: TK-10
[53] = system: U-251
[54] = system: UACC-257
[55] = system: UACC-62
[56] = system: UO-31
[57] = system: RPMI-8226
[58] = system: SNB-75

## O=C1Nc2ccccc2/C1=N/NC(=S)Nc1cccc(Cl)c1
[1]
  GI50: 5.12 µM (inactive)
[2]
  GI50: 4.03 µM (inactive)
[3]
  GI50: 7.08 µM (inactive)
[4]
  GI50: 6.34 µM (inactive)
[5]
  GI50: 8.3 µM (inactive)
[6]
  GI50: 2.75 µM (inactive)
[7]
  GI50: 8.93 µM (inactive)
[8]
  GI50: 22.5 µM (inactive)
[9]
  GI50: 10.3 µM (inactive)
[10]
  GI50: 66.4 µM (inactive)
[11]
  GI50: 3.49 µM (inactive)
[12]
  GI50: 7.64 µM
[13]
  GI50: 8.87 µM (inactive)
[14]
  GI50: 10.9 µM (inactive)
[15]
  GI50: 18.7 µM (inactive)
[16]
  GI50: 10.1 µM (inactive)
[17]
  GI50: 33.4 µM (inactive)
[18]
  GI50: 17.2 µM (inactive)
[19]
  GI50: 4.7 µM (inactive)
[20]
  GI50: 7.26 µM (inactive)
[21]
  GI50: 5.37 µM (inactive)
[22]
  GI50: 10.4 µM (inactive)
[23]
  GI50: 8.43 µM (inactive)
[24]
  GI50: 11.1 µM (inactive)
[25]
  GI50: 17.7 µM (inactive)
[26]
  GI50: 27.9 µM (inactive)
[27]
  GI50: 0.614 µM (active)
[28]
  GI50: 19.9 µM (inactive)
[29]
  GI50: 18 µM (inactive)
[30]
  GI50: 6.97 µM (inactive)
[31]
  GI50: 5.52 µM (inactive)
[32]
  GI50: 21.9 µM (inactive)
[33]
  GI50: 2.37 µM (inactive)
[34]
  GI50: 2.68 µM (inactive)
[35]
  GI50: 4.33 µM (inactive)
[36]
  GI50: 24.5 µM (inactive)
[37]
  GI50: 5.04 µM (inactive)
[38]
  GI50: 8.02 µM (inactive)
[39]
  GI50: 7.6 µM (inactive)
[40]
  GI50: 4.53 µM (inactive)
[41]
  GI50: 4.81 µM (inactive)
[42]
  GI50: 7 µM (inactive)
[43]
  GI50: 35.2 µM (inactive)
[44]
  GI50: 22 µM (inactive)
[45]
  GI50: 4.57 µM (inactive)
[46]
  GI50: 20.7 µM (inactive)
[47]
  GI50: 14.4 µM (inactive)
[48]
  GI50: 16.6 µM (inactive)
[49]
  GI50: 1.73 µM (inactive)
[50]
  GI50: 4.09 µM (inactive)
[51]
  GI50: 48.9 µM (inactive)
[52]
  GI50: 31.4 µM (inactive)
[53]
  GI50: 10.8 µM (inactive)
[54]
  GI50: 29.4 µM (inactive)
[55]
  GI50: 8.41 µM (inactive)
[56]
  GI50: 19.5 µM (inactive)

## C=CCNC(=S)NC=C(C(N)=O)C(N)=O
[1]
  GI50: > 100 µM (inactive)
[2]
  GI50: < 0.01 µM (active)
[3]
  GI50: > 100 µM (inactive)
[4]
  GI50: > 100 µM (inactive)
[5]
  GI50: > 100 µM (inactive)
[6]
  GI50: > 100 µM (inactive)
[7]
  GI50: > 100 µM (inactive)
[8]
  GI50: > 100 µM (inactive)
[9]
  GI50: > 100 µM (inactive)
[10]
  GI50: > 100 µM (inactive)
[11]
  GI50: > 100 µM (inactive)
[12]
  GI50: > 100 µM
[13]
  GI50: > 100 µM (inactive)
[14]
  GI50: > 100 µM (inactive)
[16]
  GI50: > 100 µM (inactive)
[17]
  GI50: > 100 µM (inactive)
[18]
  GI50: > 100 µM (inactive)
[19]
  GI50: > 100 µM (inactive)
[20]
  GI50: > 100 µM (inactive)
[21]
  GI50: > 100 µM (inactive)
[22]
  GI50: > 100 µM (inactive)
[23]
  GI50: > 100 µM (inactive)
[24]
  GI50: > 100 µM (inactive)
[25]
  GI50: > 100 µM (inactive)
[26]
  GI50: > 100 µM (inactive)
[27]
  GI50: > 100 µM (inactive)
[28]
  GI50: > 100 µM (inactive)
[29]
  GI50: > 100 µM (inactive)
[30]
  GI50: > 100 µM (inactive)
[31]
  GI50: > 100 µM (inactive)
[32]
  GI50: > 100 µM (inactive)
[33]
  GI50: > 100 µM (inactive)
[34]
  GI50: 11.1 µM (inactive)
[35]
  GI50: > 100 µM (inactive)
[36]
  GI50: > 100 µM (inactive)
[37]
  GI50: > 100 µM (inactive)
[38]
  GI50: > 100 µM (inactive)
[57]
  GI50: > 100 µM (inactive)
[39]
  GI50: > 100 µM (inactive)
[40]
  GI50: > 100 µM (inactive)
[41]
  GI50: > 100 µM (inactive)
[42]
  GI50: > 100 µM (inactive)
[43]
  GI50: > 100 µM (inactive)
[44]
  GI50: > 100 µM (inactive)
[45]
  GI50: > 100 µM (inactive)
[46]
  GI50: > 100 µM (inactive)
[47]
  GI50: > 100 µM (inactive)
[48]
  GI50: > 100 µM (inactive)
[58]
  GI50: > 100 µM (inactive)
[49]
  GI50: > 100 µM (inactive)
[50]
  GI50: > 100 µM (inactive)
[51]
  GI50: > 100 µM (inactive)
[53]
  GI50: > 100 µM (inactive)
[54]
  GI50: > 100 µM (inactive)
[55]
  GI50: > 100 µM (inactive)
[56]
  GI50: 87.9 µM (inactive)

## CC(C)n1c(=O)c2nn3c(=O)n(C(C)C)c(=O)c3nn2c1=O
[1]
  GI50: > 100 µM (inactive)
[2]
  GI50: > 100 µM (inactive)
[3]
  GI50: > 100 µM (inactive)
[4]
  GI50: > 100 µM (inactive)
[5]
  GI50: > 100 µM (inactive)
[6]
  GI50: > 100 µM (inactive)
[7]
  GI50: > 100 µM (inactive)
[8]
  GI50: > 100 µM (inactive)
[9]
  GI50: > 100 µM (inactive)
[10]
  GI50: > 100 µM (inactive)
[11]
  GI50: > 100 µM (inactive)
[12]
  GI50: > 100 µM
[13]
  GI50: > 100 µM (inactive)
[14]
  GI50: > 100 µM (inactive)
[15]
  GI50: > 100 µM (inactive)
[16]
  GI50: > 100 µM (inactive)
[17]
  GI50: > 100 µM (inactive)
[18]
  GI50: > 100 µM (inactive)
[20]
  GI50: > 100 µM (inactive)
[21]
  GI50: > 100 µM (inactive)
[22]
  GI50: > 100 µM (inactive)
[23]
  GI50: > 100 µM (inactive)
[24]
  GI50: > 100 µM (inactive)
[25]
  GI50: > 100 µM (inactive)
[26]
  GI50: > 100 µM (inactive)
[27]
  GI50: > 100 µM (inactive)
[28]
  GI50: > 100 µM (inactive)
[29]
  GI50: > 100 µM (inactive)
[30]
  GI50: > 100 µM (inactive)
[31]
  GI50: > 100 µM (inactive)
[33]
  GI50: > 100 µM (inactive)
[34]
  GI50: > 100 µM (inactive)
[35]
  GI50: > 100 µM (inactive)
[36]
  GI50: > 100 µM (inactive)
[37]
  GI50: > 100 µM (inactive)
[38]
  GI50: > 100 µM (inactive)
[39]
  GI50: > 100 µM (inactive)
[40]
  GI50: > 100 µM (inactive)
[41]
  GI50: > 100 µM (inactive)
[42]
  GI50: > 100 µM (inactive)
[43]
  GI50: > 100 µM (inactive)
[44]
  GI50: > 100 µM (inactive)
[45]
  GI50: > 100 µM (inactive)
[46]
  GI50: > 100 µM (inactive)
[47]
  GI50: > 100 µM (inactive)
[48]
  GI50: > 100 µM (inactive)
[49]
  GI50: > 100 µM (inactive)
[50]
  GI50: > 100 µM (inactive)
[51]
  GI50: > 100 µM (inactive)
[52]
  GI50: > 100 µM (inactive)
[54]
  GI50: > 100 µM (inactive)
[55]
  GI50: > 100 µM (inactive)
